Drawing on US20230080054A1 (ILDONG PHARMACEUTICAL CO., LTD., priority 2021, published 2023), this text covers inhibition for 28 compounds.

Usually inhibition stands for the percentage by which the read-out fell short of the control.

Test [1] concerns the target T1, human ANO6 (Homo sapiens, UniProt Q4KMQ2).
T1 construct: expressed in transfected cells
T1 sequence (Q4KMQ2 1-931 isoform Q4KMQ2-2): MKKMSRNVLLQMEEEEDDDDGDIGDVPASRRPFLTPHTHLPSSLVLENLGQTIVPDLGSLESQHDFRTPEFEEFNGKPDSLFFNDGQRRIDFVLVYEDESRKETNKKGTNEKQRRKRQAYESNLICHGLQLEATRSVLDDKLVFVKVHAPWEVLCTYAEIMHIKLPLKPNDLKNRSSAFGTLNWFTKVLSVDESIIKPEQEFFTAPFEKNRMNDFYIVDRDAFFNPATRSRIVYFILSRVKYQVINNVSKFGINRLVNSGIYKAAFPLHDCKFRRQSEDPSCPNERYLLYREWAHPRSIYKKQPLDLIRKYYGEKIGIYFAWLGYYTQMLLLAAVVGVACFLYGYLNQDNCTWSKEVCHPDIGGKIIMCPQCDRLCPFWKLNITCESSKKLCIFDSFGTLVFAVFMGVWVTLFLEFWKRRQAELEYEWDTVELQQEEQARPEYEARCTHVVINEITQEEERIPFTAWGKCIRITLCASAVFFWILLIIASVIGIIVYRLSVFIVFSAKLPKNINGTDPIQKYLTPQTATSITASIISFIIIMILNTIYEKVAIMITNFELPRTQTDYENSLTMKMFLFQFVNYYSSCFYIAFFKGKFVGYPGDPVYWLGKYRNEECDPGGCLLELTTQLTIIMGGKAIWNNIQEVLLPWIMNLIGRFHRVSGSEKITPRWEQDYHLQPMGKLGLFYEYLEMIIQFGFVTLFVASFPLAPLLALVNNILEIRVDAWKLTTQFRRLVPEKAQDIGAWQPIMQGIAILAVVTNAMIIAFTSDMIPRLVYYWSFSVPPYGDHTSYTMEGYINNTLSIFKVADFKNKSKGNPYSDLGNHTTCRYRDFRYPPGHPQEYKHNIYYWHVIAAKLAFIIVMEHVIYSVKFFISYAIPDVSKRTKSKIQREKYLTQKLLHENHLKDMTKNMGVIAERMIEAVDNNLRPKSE
The test is described as follows: LACT C2 assay (phosphatidylserine scramblase function assay). Type of test: cell-based. As to conditions: FRT cells expressing human ANO6, 10 μM ionomycin; for inhibition at 0.1 µM: test compound 100 nM, read-out: Inhibition Level 100 nM; for inhibition at 1 µM: test compound 1 μM, read-out: Inhibition Level 1 μM. An outline of the steps: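 FRT cells stably expressing human ANO6 were pretreated with compound (1% DMSO) for 10 min, then stimulated with 10 μM ionomycin for 10 min. Surface phosphatidylserine was stained with 500 nM Lact-C2-GFP and quantified by imaging. Inhibition was scaled between unstimulated (100%) and ionomycin-only (0%) controls, averaged over triplicates.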

For test [2], the target named is T1, human ANO6. As to the kind of experiment: YFP quenching assay (ANO6 ion channel activity). In kind it is cell-based. Particulars: 10 μM ionomycin; for inhibition at 1 µM: test compound 1 μM, read-out: Inhibition Level 1 μM; for inhibition at 30 µM: test compound 30 μM, read-out: Inhibition Level 30 μM. An outline of the steps:
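FRT cells stably expressing human ANO6 and YFP-H148Q/I152L/F46L, preincubated 10 min at 40° C with compounds (1% DMSO) in PBS. Quench read every 0.4 s after injecting 140 mM SCN- with 10 μM ionomycin; % inhibition from the 3.6–7.6 s fluorescence difference, normalised to no-ionomycin (100%) and ionomycin-only (0%) wells, duplicate or triplicate.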

Consider `CC(C)c1ccc(CNC(=O)c2cccc(Nc3ccc(-c4ccccc4)nn3)c2)cc1` [Compound A53], for which, in test [1], the inhibition at 0.1 µM was less than 30% and the inhibition at 1 µM was less than 30%. Besides, in test [2], the inhibition at 1 µM was no less than 60% and the inhibition at 30 µM was no less than 60%.

On to `O=C(NCc1ccco1)c1cccc(Nc2ccc(-c3ccccc3)nn2)c1` [Compound 46, N-[(furan-2-yl)methyl]-3-[(6-phenylpyridazin-3-yl)amino]benzamide], for which the inhibition at 1 µM in test [1] and in test [2] was 30 to 60% in each case.

Turning to `Cc1ccc(CNC(=O)c2cccc(Nc3ccc(-c4ccc(F)cc4)nn3)c2)cc1` [Compound A22], in test [1], the inhibition at 0.1 µM is less than 30% and the inhibition at 1 µM is less than 30%. Moreover, in test [2], the inhibition at 1 µM is no less than 60% and the inhibition at 30 µM is no less than 60%.

As to `O=C(NCCc1ccc(Cl)cc1)c1cccc(Nc2ccc(-c3ccccc3)nn2)c1` [Compound A45], in test [1], the inhibition at 0.1 µM lay in the range of 30 to 60% and the inhibition at 1 µM is no less than 60%. Also, in test [2], the inhibition at 1 µM was no less than 60% and the inhibition at 30 µM was no less than 60%.

In the case of `O=C(NCc1cccs1)c1cccc(Nc2ccc(-c3ccccc3)nn2)c1` [Compound 39, 3-[(6-phenylpyridazin-3-yl)amino]-N-[(thiophen-2-yl)methyl]benzamide], the inhibition at 1 µM in test [1] was less than 30%. In test [2], the inhibition at 1 µM is no less than 60% and the inhibition at 30 µM was no less than 60%.

As for `Cc1ccc(CNC(=O)c2cccc(Nc3ccc(-c4ccccc4)nn3)c2)cc1` [Compound A52], in test [1], the inhibition at 0.1 µM is less than 30% and the inhibition at 1 µM is less than 30%. In test [2], the inhibition at 1 µM was no less than 60% and the inhibition at 30 µM is no less than 60%.

As for `O=C(NCc1ccccc1Cl)c1cccc(Nc2ccc(-c3ccccc3)nn2)c1` [Compound A46], in test [1], the inhibition at 0.1 µM was less than 30% and the inhibition at 1 µM is no less than 60%. In test [2], the inhibition at 1 µM lay in the range of 30 to 60% and the inhibition at 30 µM is no less than 60%.

Take `CCCCCCCNC(=O)c1cccc(Nc2ccc(-c3ccccc3)nn2)c1` [Compound A38]: in test [1], the inhibition at 0.1 µM is no less than 60% and the inhibition at 1 µM is no less than 60%. In addition, in test [2], the inhibition at 1 µM was no less than 60% and the inhibition at 30 µM was no less than 60%.

For the compound `COc1cccc(CNC(=O)c2cccc(Nc3ccc(-c4ccccc4)nn3)c2)c1` [Compound A76], in test [1], the inhibition at 0.1 µM was less than 30% and the inhibition at 1 µM lay in the range of 30 to 60%. In test [2], the inhibition at 1 µM is no less than 60% and the inhibition at 30 µM was no less than 60%.

For `CSc1ccc(CNC(=O)c2cccc(Nc3ccc(-c4ccc(F)cc4)nn3)c2)cc1` [Compound A27], in test [1], the inhibition at 0.1 µM is less than 30% and the inhibition at 1 µM is less than 30%. In test [2], the inhibition at 1 µM lay within 30 to 60% and the inhibition at 30 µM was no less than 60%.

As to `O=C(NC1CC1c1ccccc1)c1cccc(Nc2ccc(-c3ccccc3)nn2)c1` (centres unmarked) [Compound 67, N-(2-phenylcyclopropyl)-3-[(6-phenylpyridazin-3-yl)amino]benzamide], in test [1], the inhibition at 0.1 µM was no less than 60% and the inhibition at 1 µM was no less than 60%. Further, in test [2], the inhibition at 1 µM is no less than 60%.

`O=C(NCCc1ccccc1)c1cccc(Nc2ccc(-c3ccc(F)cc3)nn2)c1` [Compound A4]: in test [1], the inhibition at 0.1 µM was less than 30% and the inhibition at 1 µM is less than 30%. Also, in test [2], the inhibition at 1 µM was no less than 60% and the inhibition at 30 µM was no less than 60%.

For the compound `O=C(Nc1cccc(F)c1)c1cccc(Nc2ccc(-c3ccc(F)cc3)nn2)c1` [Compound A15], in test [1], the inhibition at 0.1 µM is less than 30% and the inhibition at 1 µM fell in the range of 30 to 60%. Moreover, in test [2], the inhibition at 1 µM was no less than 60% and the inhibition at 30 µM was no less than 60%.

As for `O=C(NCCCc1ccccc1)c1cccc(Nc2ccc(-c3ccc(F)cc3)nn2)c1` [Compound A6], in test [1], the inhibition at 0.1 µM was less than 30% and the inhibition at 1 µM is less than 30%. In addition, in test [2], the inhibition at 1 µM was no less than 60% and the inhibition at 30 µM was no less than 60%.

On to `Cc1ccc(CNC(=O)c2cccc(Nc3ncc(-c4cccs4)cn3)c2)o1` [Compound 110, N-[(5-methylfuran-2-yl)methyl]-3-{[5-(thiophen-2-yl)pyrimidin-2-yl]amino}benzamide], for which the inhibition at 1 µM in test [1] and in test [2] was 30 to 60% in each case.

On to `Cc1ccc(CNC(=O)c2cccc(Nc3ncc(-c4ccoc4C)cn3)c2)o1` [Compound 112, N-[(5-methylfuran-2-yl)methyl]-3-{[5-(2-methylfuran-3-yl)pyrimidin-2-yl]amino}benzamide], for which the inhibition at 1 µM in test [1] is 30 to 60%; in test [2], no less than 60%.

As to `CCCCCCNC(=O)c1cccc(Nc2ccc(-c3ccccc3)nn2)c1` [Compound A37], in test [1], the inhibition at 0.1 µM is 30 to 60% and the inhibition at 1 µM is no less than 60%. In test [2], the inhibition at 1 µM is no less than 60% and the inhibition at 30 µM was no less than 60%.

Turning to `O=C(NC1CCCCCC1)c1cccc(Nc2ccc(-c3ccc(F)cc3)nn2)c1` [Compound A3], in test [1], the inhibition at 0.1 µM was less than 30% and the inhibition at 1 µM was no less than 60%. Besides, in test [2], the inhibition at 1 µM was no less than 60% and the inhibition at 30 µM was no less than 60%.

For the compound `CCCOc1ccc(CNC(=O)c2cccc(Nc3ccc(-c4ccccc4)nn3)c2)cc1` [Compound A47], the inhibition at 0.1 µM in test [1] was 30 to 60%. In addition, in test [2], the inhibition at 1 µM was no less than 60% and the inhibition at 30 µM is no less than 60%.

On to `O=C(NC1CCCCCC1)c1cccc(Nc2ccc(-c3ccccc3)nn2)c1` [Compound A39], for which, in test [1], the inhibition at 0.1 µM was no less than 60% and the inhibition at 1 µM is no less than 60%. For the same compound, in test [2], the inhibition at 1 µM lay within 30 to 60% and the inhibition at 30 µM was no less than 60%.

As to `O=C(NCCc1ccccc1)c1cccc(Nc2ccc(-c3ccccc3)cc2)c1` [Compound 50, 3-({[1,1′-biphenyl]-4-yl}amino)-N-(2-phenylethyl)benzamide], the results for the inhibition at 1 µM in test [1] and in test [2] were 30 to 60% and no less than 60%, respectively.

`O=C(NCC1CCCC1)c1cccc(Nc2ccc(-c3ccccc3)nn2)c1` [Compound 33, N-(cyclopentylmethyl)-3-[(6-phenylpyridazin-3-yl)amino]benzamide]: in test [1], the inhibition at 0.1 µM is less than 30% and the inhibition at 1 µM is no less than 60%. Moreover, in test [2], the inhibition at 1 µM was no less than 60% and the inhibition at 30 µM is no less than 60%.

As to `CCOc1ccc(CNC(=O)c2cccc(Nc3ccc(-c4ccccc4)nn3)c2)cc1OCC` [Compound A54], in test [1], the inhibition at 0.1 µM was less than 30% and the inhibition at 1 µM was less than 30%. In test [2], the inhibition at 1 µM fell in the range of 30 to 60% and the inhibition at 30 µM is no less than 60%.

As to `O=C(NCc1ccc(Br)cc1)c1cccc(Nc2ccc(-c3ccccc3)nn2)c1` [Compound A43], in test [1], the inhibition at 0.1 µM is less than 30% and the inhibition at 1 µM fell in the range of 30 to 60%. In test [2], the inhibition at 1 µM is no less than 60% and the inhibition at 30 µM is no less than 60%.

For the compound `CC(C)(C)CNC(=O)c1cccc(Nc2ccc(-c3ccccc3)nn2)c1` [Compound 24, N-(2,2-dimethylpropyl)-3-[(6-phenylpyridazin-3-yl)amino]benzamide], the inhibition at 1 µM in test [1] was less than 30%; in test [2], 30 to 60%. Further, the inhibition at 30 µM in test [2] was no less than 60%.

Turning to `O=C(NC1CC1)c1cccc(Nc2ccc(-c3ccccc3)nn2)c1` [Compound 38, N-cyclopropyl-3-[(6-phenylpyridazin-3-yl)amino]benzamide], the inhibition at 1 µM in test [1] was less than 30%. For the same compound, in test [2], the inhibition at 1 µM was no less than 60% and the inhibition at 30 µM is no less than 60%.

In the case of `CCOc1ccc(NC(=O)c2cccc(Nc3ccc(-c4ccccc4)nn3)c2)cc1` [Compound A80], the inhibition at 0.1 µM in test [1] was less than 30%. Besides, the inhibition at 1 µM in test [1] and in test [2] was no less than 60% each time.

For the compound `Cc1ccc(CNC(=O)c2cccc(Nc3ccc(-c4ccccc4)cn3)c2)o1` [Compound 4, N-[(5-methylfuran-2-yl)methyl]-3-[(5-phenylpyridin-2-yl)amino]benzamide], in test [1], the inhibition at 0.1 µM was less than 30% and the inhibition at 1 µM was no less than 60%. In addition, in test [2], the inhibition at 1 µM was no less than 60% and the inhibition at 30 µM is no less than 60%.
